According to ChEMBL document CHEMBL4765314, “Rational design and biological evaluation of gemfibrozil modified Xenopus GLP-1 derivatives as long-acting hypoglycemic agents” (Eur J Med Chem, 2020):
Active and inactive are the calls of the source. No cut-off for these calls is given here. Starred links: 1 amine or outer side, 2 acyl side, 3 side chain; linkers in the order of their positions; H or OH if unused. Positions of bridges follow the written chain, without caps; N, C: chain ends. Non-standard residues stand in square brackets, D forms with d. Residues, ends and D or L forms follow the SMILES beside them. Groups on a side chain read outwards from the residue. Chains are numbered I, II in the order given. ξ: configuration not given here. *: point of attachment. X3 = Cc1ccc(C)c(OCCCC(C)(C)C(=O)OCC(=O)NCCCCCC(=O)N[C@@H](CCC(=O)NCCCC[C@H](NO[*:1])C(=O)[*:2])C(=O)O)c1; X2 = Cc1ccc(C)c(OCCCC(C)(C)C(=O)OCC(=O)NCCCCC(NC(=O)COC(=O)C(C)(C)CCCOc2cc(C)ccc2C)C(=O)*)c1; Glycoloyl(O-gemfibrozoyl) = Cc1ccc(C)c(OCCCC(C)(C)C(=O)OCC(=O)*)c1; γGlu = O=C(O)[C@H](CCC(=O)[*:2])N[*:1]; Thr(3ξ) = CC(O)[C@H](N)C(=O)O; Aun = NCCCCCCCCCCC(=O)O; ξK = NCCCCC(N)C(=O)O; Ahx = NCCCCCC(=O)O

Key:
Mus musculus [1] = assay: Hypoglycemic activity in non-fasted db/db […] mouse assessed as reduction in blood glucose level at 25 nmol/kg, ip dosed 30 mins before glucose challenge measured up to 120 mins by OGTT method; assay type: functional, organism-based
Albumin = Albumin (Homo sapiens, UniProt P02768); assay: Binding affinity to human serum albumin assessed as retention factor by HPAC method; assay type: ADME
Chain of Albumin (P02768 whole entry): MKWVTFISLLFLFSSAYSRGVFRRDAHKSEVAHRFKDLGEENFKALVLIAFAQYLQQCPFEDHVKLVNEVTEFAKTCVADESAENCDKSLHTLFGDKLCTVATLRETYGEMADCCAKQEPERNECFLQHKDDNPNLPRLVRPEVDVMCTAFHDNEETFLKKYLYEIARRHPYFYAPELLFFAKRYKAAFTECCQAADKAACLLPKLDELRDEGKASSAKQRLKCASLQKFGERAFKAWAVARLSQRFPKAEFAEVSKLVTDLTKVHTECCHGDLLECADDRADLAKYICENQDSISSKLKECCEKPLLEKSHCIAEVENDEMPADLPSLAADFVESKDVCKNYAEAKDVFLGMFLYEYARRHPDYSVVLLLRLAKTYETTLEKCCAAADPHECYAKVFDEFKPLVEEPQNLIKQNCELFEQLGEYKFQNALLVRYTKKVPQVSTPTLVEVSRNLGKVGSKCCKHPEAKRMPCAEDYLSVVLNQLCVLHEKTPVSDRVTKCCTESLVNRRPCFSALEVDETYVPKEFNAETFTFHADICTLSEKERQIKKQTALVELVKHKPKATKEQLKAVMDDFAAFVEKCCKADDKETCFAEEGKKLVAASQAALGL

Mus musculus [2] = assay: Hypoglycemic activity in 12 hrs fasted ICR mouse assessed as reduction in blood glucose level at 25 nmol/kg, ip dosed 30 mins before glucose challenge measured up to 120 mins by OGTT method; assay type: functional, organism-based; settings: time 150.0 min
[3] = target: Glucagon-like peptide 1 receptor (Homo sapiens, UniProt P43220); assay: Agonist activity at human GLP-1R expressed in HEK293 cells assessed as stimulation of cAMP accumulation incubated for 60 mins by HTRF assay; assay type: functional, cell-based
Chain of Glucagon-like peptide 1 receptor (P43220 whole entry): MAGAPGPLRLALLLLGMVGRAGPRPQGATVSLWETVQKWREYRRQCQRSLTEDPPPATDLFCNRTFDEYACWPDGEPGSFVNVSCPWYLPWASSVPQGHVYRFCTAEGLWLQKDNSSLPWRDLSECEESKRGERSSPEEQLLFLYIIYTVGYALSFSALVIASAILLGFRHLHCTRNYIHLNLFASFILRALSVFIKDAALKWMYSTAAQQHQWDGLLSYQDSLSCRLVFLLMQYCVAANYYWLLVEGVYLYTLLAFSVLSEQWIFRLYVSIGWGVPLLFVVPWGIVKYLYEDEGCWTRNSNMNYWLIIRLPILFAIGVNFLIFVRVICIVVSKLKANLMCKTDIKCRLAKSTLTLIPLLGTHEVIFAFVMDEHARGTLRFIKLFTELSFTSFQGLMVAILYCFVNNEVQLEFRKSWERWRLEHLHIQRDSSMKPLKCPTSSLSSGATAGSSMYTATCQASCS

[4] = Stability in Sprague-Dawley rat plasma assessed as half life at 1000 ng/ml measured up to 48 hrs under shaking condition by LC-MS/MS analysis; assay type: ADME, cell-free
[5] = Tmax in Sprague-Dawley rat at 50 nmol/kg, sc measured up to 24 hrs by LC-MS/MS analysis; assay type: ADME, organism-based; settings: in vivo
[6] = Half life in Sprague-Dawley rat at 50 nmol/kg, sc measured up to 24 hrs by LC-MS/MS analysis; assay type: ADME, organism-based; settings: in vivo
[7] = Stability in Sprague-Dawley rat plasma at 1000 ng/ml measured up to 48 hrs under shaking condition by LC-MS/MS analysis; assay type: ADME, cell-free

Row | Compound | Activity (Mus musculus [1]) | K (Albumin) | Activity (Mus musculus [2]) | EC50 [3] [nM] | half-life at 1000 ng/ml [4] [h] | Tmax [5] [h] | half-life [6] [h] | Stabilty [7]
1 | CC[C@H](C)[C@H](NC(=O)[C@H](CC(C)C)NC(=O)[C@H](Cc1c[nH]c2ccccc12)NC(=O)[C@H](CCC(=O)O)NC(=O)[C@@H](NC(=O)[C@H](Cc1ccccc1)NC(=O)[C@H](CCC(=O)O)NC(=O)C(CCCCNC(=O)CC[C@H](NC(=O)C(CCCCNC(=O)COC(=O)C(C)(C)CCCOc1cc(C)ccc1C)NC(=O)COC(=O)C(C)(C)CCCOc1cc(C)ccc1C)C(=O)O)NC(=O)[C@H](C)NC(=O)[C@H](C)NC(=O)[C@H](CCC(=O)O)NC(=O)[C@H](CCC(=O)O)NC(=O)[C@H](CCC(=O)O)NC(=O)[C@H](CC(C)C)NC(=O)[C@H](Cc1ccc(O)cc1)NC(=O)[C@H](CCC(=O)O)NC(=O)[C@@H](NC(=O)[C@@H](NC(=O)[C@H](CC(=O)O)NC(=O)[C@H](CC(N)=O)NC(=O)[C@@H](NC(=O)[C@H](Cc1ccc(O)cc1)NC(=O)[C@@H](NC(=O)CNC(=O)[C@H](CCC(=O)O)NC(=O)CNC(=O)[C@@H](N)Cc1cnc[nH]1)[C@@H](C)O)[C@@H](C)O)C(C)C)[C@@H](C)O)[C@@H](C)CC)C(=O)N[C@@H](CCCCN)C(=O)NCC(=O)N[C@@H](CCCCN)C(=O)N1CCC[C@H]1C(=O)N[C@@H](CO)C(=O)N[C@@H](CO)C(=O)NCC(=O)N[C@@H](C)C(=O)N1CCC[C@H]1C(=O)N1CCC[C@H]1C(=O)N1CCC[C@H]1C(=O)N[C@@H](C)C(=O)O (stereo partly drawn) (H-HGEGTYTNDVTEYLEEEAA[ξK]([γGlu-X2])EFIEWLIKGKPSSGAPPPA-OH) | Active | 11.8 | Active | 0.11 | 30.4 |  |  | 
2 | CC[C@H](C)[C@H](NC(=O)[C@H](CC(C)C)NC(=O)[C@H](Cc1c[nH]c2ccccc12)NC(=O)[C@H](CCC(=O)O)NC(=O)[C@@H](NC(=O)[C@H](Cc1ccccc1)NC(=O)[C@H](CCC(=O)O)NC(=O)[C@H](CCCCNC(=O)CC[C@H](NC(=O)CCCCCNC(=O)COC(=O)C(C)(C)CCCOc1cc(C)ccc1C)C(=O)O)NC(=O)[C@H](C)NC(=O)[C@H](C)NC(=O)[C@H](CCC(=O)O)NC(=O)[C@H](CCC(=O)O)NC(=O)[C@H](CCC(=O)O)NC(=O)[C@H](CC(C)C)NC(=O)[C@H](Cc1ccc(O)cc1)NC(=O)[C@H](CCC(=O)O)NC(=O)[C@@H](NC(=O)[C@@H](NC(=O)[C@H](CC(=O)O)NC(=O)[C@H](CC(N)=O)NC(=O)[C@@H](NC(=O)[C@H](Cc1ccc(O)cc1)NC(=O)[C@@H](NC(=O)CNC(=O)[C@H](CCC(=O)O)NC(=O)CNC(=O)[C@@H](N)Cc1cnc[nH]1)[C@@H](C)O)[C@@H](C)O)C(C)C)C(C)O)[C@@H](C)CC)C(=O)N[C@@H](CCCCN)C(=O)NCC(=O)N[C@@H](CCCCN)C(=O)N1CCC[C@H]1C(=O)N[C@@H](CO)C(=O)N[C@@H](CO)C(=O)NCC(=O)N[C@@H](C)C(=O)N1CCC[C@H]1C(=O)N1CCC[C@H]1C(=O)N1CCC[C@H]1C(=O)N[C@@H](CO)C(=O)O (stereo partly drawn) (H-HGEGTYTNDV[Thr(3ξ)]EYLEEEAAK([γGlu-Ahx-Glycoloyl(O-gemfibrozoyl)])EFIEWLIKGKPSSGAPPPS-OH) |  | 6.8 | Active | 0.083 | 17.2 |  |  | 
3 | CC[C@H](C)[C@H](NC(=O)[C@H](CC(C)C)NC(=O)[C@H](Cc1c[nH]c2ccccc12)NC(=O)[C@H](CCC(=O)O)NC(=O)[C@@H](NC(=O)[C@H](Cc1ccccc1)NC(=O)[C@H](CCC(=O)O)NC(=O)[C@H](CCCCNC(=O)CC[C@H](NC(=O)CCCCCCCCCCNC(=O)COC(=O)C(C)(C)CCCOc1cc(C)ccc1C)C(=O)O)NC(=O)[C@H](C)NC(=O)[C@H](C)NC(=O)[C@H](CCC(=O)O)NC(=O)[C@H](CCC(=O)O)NC(=O)[C@H](CCC(=O)O)NC(=O)[C@H](CC(C)C)NC(=O)[C@H](Cc1ccc(O)cc1)NC(=O)[C@H](CCC(=O)O)NC(=O)[C@@H](NC(=O)[C@@H](NC(=O)[C@H](CC(=O)O)NC(=O)[C@H](CC(N)=O)NC(=O)[C@@H](NC(=O)[C@H](Cc1ccc(O)cc1)NC(=O)[C@@H](NC(=O)CNC(=O)[C@H](CCC(=O)O)NC(=O)CNC(=O)[C@@H](N)Cc1cnc[nH]1)C(C)O)C(C)O)C(C)C)[C@@H](C)O)[C@@H](C)CC)C(=O)N[C@@H](CCCCN)C(=O)NCC(=O)N[C@@H](CCCCN)C(=O)N1CCC[C@H]1C(=O)N[C@@H](CO)C(=O)N[C@@H](CO)C(=O)NCC(=O)N[C@@H](C)C(=O)N1CCC[C@H]1C(=O)N1CCC[C@H]1C(=O)N1CCC[C@H]1C(=O)N[C@@H](CO)C(=O)O (stereo partly drawn) (H-HGEG[Thr(3ξ)]Y[Thr(3ξ)]NDVTEYLEEEAAK([γGlu-Aun-Glycoloyl(O-gemfibrozoyl)])EFIEWLIKGKPSSGAPPPS-OH) |  | 7.6 | Active | 0.14 | 21.4 | 2.7 | 3.7 | 
4 | CC[C@H](C)[C@H](NC(=O)[C@H](CC(C)C)NC(=O)[C@H](Cc1c[nH]c2ccccc12)NC(=O)[C@H](CCC(=O)O)NC(=O)[C@@H](NC(=O)[C@H](Cc1ccccc1)NC(=O)[C@H](CCC(=O)O)NC(=O)[C@H](CCCCNC(=O)CC[C@H](NC(=O)CCCCCNC(=O)COC(=O)C(C)(C)CCCOc1cc(C)ccc1C)C(=O)O)NOC(=O)[C@H](C)NC(=O)[C@H](C)NC(=O)[C@H](CCC(=O)O)NC(=O)[C@H](CCC(=O)O)NC(=O)[C@H](CCC(=O)O)NC(=O)[C@H](CC(C)C)NC(=O)[C@H](Cc1ccc(O)cc1)NC(=O)[C@H](CCC(=O)O)NC(=O)[C@@H](NC(=O)[C@@H](NC(=O)[C@H](CC(=O)O)NC(=O)[C@H](CC(N)=O)NC(=O)[C@@H](NC(=O)[C@H](Cc1ccc(O)cc1)NC(=O)[C@@H](NC(=O)CNC(=O)[C@H](CCC(=O)O)NC(=O)CNC(=O)[C@@H](N)Cc1cnc[nH]1)[C@@H](C)O)[C@@H](C)O)C(C)C)[C@@H](C)O)[C@@H](C)CC)C(=O)N[C@@H](CCCCN)C(=O)NCC(=O)N[C@@H](CCCCN)C(=O)O (I: H-HGEGTYTNDVTEYLEEEAA / II: EFIEWLIKGK-OH; linker I:C-II:N via X3) |  |  | Active | 0.093 | 14.2 |  |  | Stable
5 | H-HGEGTYTNDVTEYLEEEAAK([γGlu-Aun-Glycoloyl(O-gemfibrozoyl)])EFIEWLIKGKPSSGAPPSKKKKKK-OH |  | 7.3 | Active | 0.11 | 20.1 |  |  | 
